Here are results for seven compounds from PMC7468280 (Scientific Reports, 2020).

“Also recorded” adds a separate entry of the source. Read-outs that look alike come from different tables or passages of the source. Positions of bridges follow the written chain, without caps; N, C: chain ends. Non-standard residues stand in square brackets, D forms with d. Residues, ends and D or L forms follow the SMILES beside them. No end group written: not given here.

The nature of data set [1]: 90% human serum in Hanks Balanced Salt Solution (HBSS). Conditions: 37 °C, up to 24 h.
Data set [2] concerns HIV-1BaL. The note with it: read-out: IC50 against HIV-1BaL, TZM-bl cells sustained, peptide 1 h before virus, 48 h culture in presence of drug (sustained), luciferase, mean ± SEM of three independent experiments in triplicate.
Data set [3] has as its system HIV-1BaL. The note with it: human colorectal explants, p24 ELISA, mean ± SEM of three independent experiments in triplicate. (In general: An ELISA detects its analyte on a solid surface through an enzyme-linked reagent.)
Data set [4] can be described thus: Stability in human serum. Format: in vitro ADME. The note with it: 1 mg/ml peptide, 90% human serum in HBSS, 37 °C, HPLC at 220 nm, three replicates (b16 says human plasma). Here is the method: Figure 3 Representation of the percentage of peptide that remains in solution with respect to the initial one at different times. The percentage is calculated by dividing the area (HPLC analysis) at time “t” by the initial area of the peptide in the test conditions. Bar errors represents SEM of three replicates. Software GraphPad Prism 5.0 (https://graphpad-prism.software.informer.com/5.0/) was used.
The stability of E1P47 peptides was studied in human serum, a protease-rich media. Briefly, a concentration of 1 mg/ml of each peptide was incubated with 90% human serum in Hanks Balanced Salt Solution (HBSS) at 37 °C and aliquots of 40 µl were taken at different time-points during 24 h and treated with 200 µl of methanol to immediately precipitate the serum proteins. After 30 min of centrifugation at 4 °C, the supernatant was analysed by HPLC at 220 nm to calculate the content of intact peptide in each sample and by UPLC/MS to identify the main metabolites generated after the enzymatic hydrolysis.

Setting [5] is: read-out: IC50 against HIV-1BaL, colorectal explants pulse, peptide 1 h before and 2 h during virus (3 h pulse), washed, 15 days culture without drug.
The mark [6] stands for this setting: read-out: IC50 against HIV-1BaL, colorectal explants sustained, peptide before and during virus and throughout 15 days culture (sustained).

On to WILEYLWKVPFDFWKGVI-NH2, for which, in data set [1], the cleaved bond result is listed as “Trp7-K8, major” and the not cleaved result was “intact”.

Take `CC[C@H](C)[C@H](NC(=O)[C@@H](NC(=O)CNC(=O)[C@@H]1CCCCNC(=O)C[C@H](NC(=O)[C@H](Cc2ccccc2)NC(=O)[C@@H]2CCCN2C(=O)[C@@H](NC(=O)[C@H](CCCCN)NC(=O)[C@H](Cc2c[nH]c3ccccc23)NC(=O)[C@H](CC(C)C)NC(=O)[C@H](Cc2ccc(O)cc2)NC(=O)[C@H](CCC(=O)O)NC(=O)[C@H](CC(C)C)NC(=O)[C@@H](NC(=O)[C@@H](N)Cc2c[nH]c3ccccc23)[C@@H](C)CC)C(C)C)C(=O)N[C@@H](Cc2ccccc2)C(=O)N[C@@H](Cc2c[nH]c3ccccc23)C(=O)N1)C(C)C)C(N)=O` [StP1-E1P47] (H-WILEYLWKVPFDFWKGVI-NH2; lactam 12-15): the IC50 – broadly, the concentration needed to halve the response being measured – in data set [2] turned out to be 0.11 ± 0.01 µM; in data set [3] (setting [5]), 33 ± 27.4 µM; in data set [3] (setting [6]), 2.8 ± 0.5 µM.

Take `CC[C@@H](C)[C@@H](N)C(=O)N[C@@H](C(=O)NCC(=O)N[C@H](CCCNC(=N)N)C(=O)N[C@H](Cc1c[nH]c2ccccc12)C(=O)N[C@H](Cc1ccccc1)C(=O)N[C@H](CC(=O)O)C(=O)N[C@H](Cc1ccccc1)C(=O)N1CCC[C@@H]1C(=O)N[C@@H](C(=O)N[C@H](CCCCN)C(=O)N[C@H](Cc1c[nH]c2ccccc12)C(=O)N[C@H](CC(C)C)C(=O)N[C@H](Cc1ccc(O)cc1)C(=O)N[C@H](CCC(=O)O)C(=O)N[C@H](CC(C)C)C(=O)N[C@@H](C(=O)N[C@H](Cc1c[nH]c2ccccc12)C(N)=O)[C@H](C)CC)C(C)C)C(C)C` [RE-E1P47] (H-[dI][dV]G[dR][dW][dF][dD][dF][dP][dV][dK][dW][dL][dY][dE][dL][dI][dW]-NH2): the “stability to human plasma/serum proteases (in words)” value in data set [4] (up to 24 h) is recorded as “remained practically unaltered for almost 24 h”. The IC50 was 28.7 ± 23.2 µM in data set [3] (setting [5]) and 3.7 ± 1.7 µM in data set [3] (setting [6]).

With `CC[C@H](C)[C@H](NC(=O)[C@@H](NC(=O)CNC(=O)[C@H](CCCNC(=N)N)NC(=O)[C@H](Cc1c[nH]c2ccccc12)NC(=O)[C@H](Cc1ccccc1)NC(=O)[C@H](CC(=O)O)NC(=O)[C@H](Cc1ccccc1)NC(=O)[C@@H]1CCCN1C(=O)[C@@H](NC(=O)[C@H](CCCCN)NC(=O)[C@H](Cc1c[nH]c2ccccc12)NC(=O)[C@H](CC(C)C)NC(=O)[C@H](Cc1ccc(O)cc1)NC(=O)[C@H](CCC(=O)O)NC(=O)[C@H](CC(C)C)NC(=O)[C@@H](NC(=O)[C@@H](N)Cc1c[nH]c2ccccc12)[C@@H](C)CC)C(C)C)C(C)C)C(N)=O` [E1P47] (H-WILEYLWKVPFDFWRGVI-NH2), the metabolised at 8 h, 1 mg/ml in data set [4] (8 h, methanol precipitation, read-out: peptide degraded at 8 h) was around 50%. Further, the IC50 was determined as 0.76 ± 0.08 µM in data set [2], 38.5 ± 17.2 µM in data set [3] (setting [5]) and 8 ± 4.6 µM in data set [3] (setting [6]).

Regarding `CC[C@H](C)[C@H](NC(=O)[C@@H](NC(=O)CNC(=O)[C@H](CCCNC(=N)N)NC(=O)[C@H](Cc1c[nH]c2ccccc12)NC(=O)[C@H](Cc1ccccc1)NC(=O)[C@H](CC(=O)O)NC(=O)[C@H](Cc1ccccc1)NC(=O)[C@@H]1CCCN1C(=O)[C@@H](NC(=O)[C@@H]1CCCCNC(=O)CC[C@H](NC(=O)[C@H](CC(C)C)NC(=O)[C@@H](NC(=O)[C@@H](N)Cc2c[nH]c3ccccc23)[C@@H](C)CC)C(=O)N[C@@H](Cc2ccc(O)cc2)C(=O)N[C@@H](CC(C)C)C(=O)N[C@@H](Cc2c[nH]c3ccccc23)C(=O)N1)C(C)C)C(C)C)C(N)=O` [StP2-E1P47] (H-WILEYLWKVPFDFWRGVI-NH2; lactam 4-8), the IC50 in data set [2] came to 0.16 ± 0.01 µM; in data set [3] (setting [5]) it was 32 ± 15.5 µM; in data set [3] (setting [6]), 2.9 ± 0.4 µM.

With WILEYLWKVPFDFWRGVI-NH2, in data set [1], the cleaved bond result is on record as “Phe11-D12, major” and the not cleaved result is “intact”.

Turning to WILEYLWKVPFDFWRGVI, the cleaved bond entry in data set [1] is listed as “Glu4-Y5, major; also recorded: Gly16-V17, major; also recorded: Trp1-I2, major; also recorded: Phe11-D12, major; also recorded: Trp7-K8, major”.
